Laboratory results from patent US8252781B2, “1,2-diazetidin-3-one derivatives and drugs containing same” (Kowa Company, Ltd., priority 2008, dated 2012).
Read-outs that look alike come from different tables or passages of the source.

Assays:
[1] = target: T1, mouse 11β-HSD1 (Mus musculus, UniProt P50172); test: Enzyme inhibitory activity, mouse 11β-HSD1 (lysate of stably expressing CHO-K1 cells, cortisol by competitive ELISA); assay type: biochemical; details: Table 2; mouse 11β-HSD1, cell lysate, 37° C. for 1 hour; read-out: m HSD1 in vitro assay (IC50 uM)
T1 construct: The obtained PCR products of about 0.9 kbp, 1.2 kbp, and 0.9 kbp were subcloned into an expression vector pcDNA3.1+/Zeo; expressed in transfected cells
T1 sequence (P50172 whole entry): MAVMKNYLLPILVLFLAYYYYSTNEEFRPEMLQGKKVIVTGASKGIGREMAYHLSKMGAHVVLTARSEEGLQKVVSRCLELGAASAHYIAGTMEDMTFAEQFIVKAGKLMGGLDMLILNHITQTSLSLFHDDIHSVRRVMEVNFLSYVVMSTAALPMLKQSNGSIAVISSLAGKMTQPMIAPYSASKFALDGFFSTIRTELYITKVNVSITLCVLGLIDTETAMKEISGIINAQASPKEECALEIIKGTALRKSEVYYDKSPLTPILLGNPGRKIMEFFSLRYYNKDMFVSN
Method: (§1) 1. Human 11β-HSD1-, Human 11β-HSD2- and Mouse 11β-HSD1-Gene Clonings and Establishment of Stably Expressing Cells
(§2) Human 11β-HSD1-, human 11β-HSD2-, and mouse 11β-HSD1-gene clonings were conducted using as a template a reverse transcription product of human-liver RNA, human-kidney RNA (CELL APPLICATIONS), and mouse-kidney RNA respectively, by means of PCR cloning with reference to nucleotide sequences of Genbank Accession Nos. NM_005525, NM_000196, and NM_008288. The obtained PCR products of about 0.9 kbp, 1.2 kbp, and 0.9 kbp were subcloned into an expression vector pcDNA3.1+/Zeo (Invitrogen).
(§3) Human 11β-HSD1- and human 11β-HSD2-expressing vectors were transfected into human kidney-derived cell line, HEK293 cells, using a transfection reagent, jet PEI (Funakoshi). Mouse 11β-HSD1 was transfected to Chinese hamster ovary-derived cell line, CHO-K1 cells. Selection was conducted with 200-400 μg/mL of zeocine (Invitrogen) to provide stably expressing-cell clones. The stably expressing cells were suspended in buffer solution A (20 mmol/L Tris-HCl, pH 7.4, 250 mmol/L sucrose, 1 mmol/L EGTA, 1 mmol/L EDTA, 1 mmol/L MgCl2), sonicated, and then stored at −80° C.
(§4) 2. Assay of Enzyme Inhibitory Activity
(§5) An enzymatic reaction was conducted using a polystyrene 96-well plate. Each well was added with 1 μL of a test agent dissolved in DMSO and then diluted (0.003 to 3 mmol/L), and further added with 10 μL of cell lysate diluted to a concentration of 0.1 mg/mL to 0.4 mg/mL. Next, 90 μL of buffer solution A containing substrate (100 nmol/L cortisone or cortisol) and coenzyme (400 μmol/L NADPH or NAD+) was added and the mixture was incubated at 37° C. for 1 hour. The enzymatic reaction was stopped by treating at 95° C. for 3 minutes. Cortisol that was present in the reaction solution was determined by a competitive ELISA shown below.
(§6) Anti-rabbit IgG antibody (Chemi-con) diluted to 2 μg/mL with carbonate buffer solution (pH 9.6) was added in 100 μL each to a 96-well immuno plate (Nunc) and immobilized by an incubation at 4° C. overnight. 50 μL of enzymatic reaction solution was put onto the plates, and further, anti-cortisol antibody (Cosmo Bio) and HRP-labeled cortisol (Cosmo Bio), diluted with buffer solution B (25 mmol/L Tris-HCl pH 7.4, 137 mmol/L NaCl, 2.68 mmol/L KCl), were added in 50 μL respectively and incubated at 4° C. overnight. After washed three times with buffer solution B containing 0.05% Tween 20, the plates were allowed to develop color by adding 100 μL of color reagent, TMB (Moss). The color reaction was stopped by 25 μL of 1 mol/L sulfuric acid and the absorbance was determined at 450 nm with a microplate reader (Molecular Device, VersaMax).
(§7) The values of human 11β-HSD1, human 11β-HSD2, and mouse 11β-HSD1 activities were subtracted from 100, and the resultant values were regarded as the respective 11β-HSD inhibition rates of example compounds. […] The comparison of human 11β-HSD1 and human 11β-HSD2 inhibiting activities is shown in Table 1, and the comparison of human 11β-HSD1 and mouse 11β-HSD1 inhibiting activities is shown in Table 2.

[2] = target: T2, human 11β-HSD1 (Homo sapiens, UniProt P28845); test: Enzyme inhibitory activity, human 11β-HSD1 (lysate of stably expressing HEK293 cells, cortisol by competitive ELISA); assay type: biochemical; details: human 11β-HSD1, cell lysate, 37° C. for 1 hour, read-out: h HSD1 in vitro assay (IC50 uM)
T2 construct: The obtained PCR products of about 0.9 kbp, 1.2 kbp, and 0.9 kbp were subcloned into an expression vector pcDNA3.1+/Zeo; expressed in transfected cells
T2 sequence (P28845 whole entry): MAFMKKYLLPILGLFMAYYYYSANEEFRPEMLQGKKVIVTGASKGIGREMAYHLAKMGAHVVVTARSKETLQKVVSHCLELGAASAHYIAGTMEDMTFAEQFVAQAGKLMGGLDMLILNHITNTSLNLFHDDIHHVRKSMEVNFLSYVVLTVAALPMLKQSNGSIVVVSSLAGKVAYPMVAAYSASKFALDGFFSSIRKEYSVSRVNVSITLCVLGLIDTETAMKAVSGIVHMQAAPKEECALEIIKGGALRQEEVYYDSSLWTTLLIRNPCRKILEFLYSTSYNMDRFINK
Method: as §1, §2, §3, §4, §5, §6, §7

| IC50 [1] | IC50 ([2]; Table 2) | IC50 ([2]; Table 1) | SMILES |
| --- | --- | --- | --- |
| 0.073 µM | 0.44 µM | – | CC1(C)C(=O)N(C2C3CC4CC(C3)CC2C4)N1Cc1cccc(Cl)c1 (centres unmarked) [Example 28, 1-(3-chlorobenzyl)-4,4-dimethyl-2-(adamantan-2-yl)-1,2-diazetidin-3-one] |
| 0.37 µM | 0.6 µM | – | CC1(C)C(=O)N(C2C3CC4CC(C3)CC2C4)N1Cc1cccc([N+](=O)[O-])c1 (centres unmarked) [Example 29, 4,4-dimethyl-1-(3-nitrobenzyl)-2-(adamantan-2-yl)-1,2-diazetidin-3-one] |
| 0.1 µM | 0.047 µM | – | Cc1ccccc1CN1N(C2C3CC4CC(C3)CC2C4)C(=O)C1(C)C (centres unmarked) [Example 30, 4,4-dimethyl-1-(2-methylbenzyl)-2-(adamantan-2-yl)-1,2-diazetidin-3-one] |
| 0.3 µM | 0.96 µM | – | CC1(C)C(=O)N(C2C3CC4CC(C3)CC2C4)N1Cc1ccc([N+](=O)[O-])cc1 (centres unmarked) [Example 31, 4,4-dimethyl-1-(4-nitrobenzyl)-2-(adamantan-2-yl)-1,2-diazetidin-3-one] |
| 0.054 µM | 0.25 µM | – | Cc1cccc(CN2N(C3C4CC5CC(C4)CC3C5)C(=O)C2(C)C)c1 (centres unmarked) [Example 32, 4,4-dimethyl-1-(3-methylbenzyl)-2-(adamantan-2-yl)-1,2-diazetidin-3-one] |
| 0.086 µM | 0.38 µM | – | CC1(C)C(=O)N(C2C3CC4CC(C3)CC2C4)N1Cc1cccc(Br)c1 (centres unmarked) [Example 33, 1-(3-bromobenzyl)-4,4-dimethyl-2-(adamantan-2-yl)-1,2-diazetidin-3-one] |
| 0.15 µM | 0.44 µM | – | CC1(C)C(=O)N(C2C3CC4CC(C3)CC2C4)N1Cc1cccc(I)c1 (centres unmarked) [Example 35, 1-(3-iodobenzyl)-4,4-dimethyl-2-(adamantan-2-yl)-1,2-diazetidin-3-one] |
| 0.21 µM | 0.69 µM | – | CC1(C)C(=O)N(C2C3CC4CC(C3)CC2C4)N1Cc1ccc(C(F)(F)F)cc1 (centres unmarked) [Example 36, 4,4-dimethyl-2-(adamantan-2-yl)-1-[4-(trifluoromethyl)benzyl]-1,2-diazetidin-3-one] |
| 0.1 µM | 0.26 µM | – | CC1(C)C(=O)N(C2C3CC4CC(C3)CC2C4)N1Cc1ccccc1F (centres unmarked) [Example 38, 1-(2-fluorobenzyl)-4,4-dimethyl-2-(adamantan-2-yl)-1,2-diazetidin-3-one] |
| 0.24 µM | – | 0.025 µM | CC1(C)C(=O)N(C2C3CC4CC(C3)CC2C4)N1Cc1ccccc1C(F)(F)F (centres unmarked) [Example 42, 4,4-dimethyl-2-(adamantan-2-yl)-1-[2-(trifluoromethyl)benzyl]-1,2-diazetidin-3-one] |
| 0.074 µM | 0.072 µM | – | CC1(C)C(=O)N(C2C3CC4CC(C3)CC2C4)N1Cc1cccc(Cl)c1Cl (centres unmarked) [Example 43, 1-(2,3-dichlorobenzyl)-4,4-dimethyl-2-(adamantan-2-yl)-1,2-diazetidin-3-one] |
| 0.073 µM | 0.044 µM | – | CC1(C)C(=O)N(C2C3CC4CC(C3)CC2C4)N1Cc1cc(Cl)ccc1Cl (centres unmarked) [Example 44, 1-(2,5-dichlorobenzyl)-4,4-dimethyl-2-(adamantan-2-yl)-1,2-diazetidin-3-one] |
| 0.14 µM | 0.079 µM | – | CC1(C)C(=O)N(C2C3CC4CC(C3)CC2C4)N1Cc1ccc(F)cc1Cl (centres unmarked) [Example 45, 1-(2-chloro-4-fluorobenzyl)-4,4-dimethyl-2-(adamantan-2-yl)-1,2-diazetidin-3-one] |
| 0.45 µM | 0.23 µM | – | CC1(C)C(=O)N(C2C3CC4CC(C3)CC2C4)N1Cc1c(F)cccc1Cl (centres unmarked) [Example 46, 1-(2-chloro-6-fluorobenzyl)-4,4-dimethyl-2-(adamantan-2-yl)-1,2-diazetidin-3-one] |
| 0.58 µM | 0.2 µM | – | CC1(C)C(=O)N(C2C3CC4CC(C3)CC2C4)N1Cc1ccccc1[N+](=O)[O-] (centres unmarked) [Example 47, 4,4-dimethyl-1-(2-nitrobenzyl)-2-(adamantan-2-yl)-1,2-diazetidin-3-one] |
| 0.31 µM | – | 0.8 µM | CC1(C)C(=O)N(C2C3CC4CC(C3)CC2C4)N1Cc1ccccc1-c1ccccc1 (centres unmarked) [Example 49, 1-(biphenyl-2-ylmethyl)-4,4-dimethyl-2-(adamantan-2-yl)-1,2-diazetidin-3-one] |
| 0.58 µM | 0.082 µM | – | COc1ccccc1CN1N(C2C3CC4CC(C3)CC2C4)C(=O)C1(C)C (centres unmarked) [Example 51, 1-(2-methoxybenzyl)-4,4-dimethyl-2-(adamantan-2-yl)-1,2-diazetidin-3-one] |
| 0.06 µM | 0.35 µM | – | CC1(C)C(=O)N(C2C3CC4CC(C3)CC2C4)N1Cc1ccc(Br)cc1 (centres unmarked) [Example 53, 1-(4-bromobenzyl)-4,4-dimethyl-2-(adamantan-2-yl)-1,2-diazetidin-3-one] |
| 0.036 µM | 0.3 µM | – | COc1cccc(CN2N(C3C4CC5CC(C4)CC3C5)C(=O)C2(C)C)c1 (centres unmarked) [Example 54, 1-(3-methoxybenzyl)-4,4-dimethyl-2-(adamantan-2-yl)-1,2-diazetidin-3-one] |
| 0.069 µM | 0.067 µM | – | Cc1ccc(CN2N(C3C4CC5CC(C4)CC3C5)C(=O)C2(C)C)c(C)c1 (centres unmarked) [Example 55, 1-(2,4-dimethylbenzyl)-4,4-dimethyl-2-(adamantan-2-yl)-1,2-diazetidin-3-one] |
| 0.052 µM | 0.054 µM | – | Cc1ccc(C)c(CN2N(C3C4CC5CC(C4)CC3C5)C(=O)C2(C)C)c1 (centres unmarked) [Example 56, 1-(2,5-dimethylbenzyl)-4,4-dimethyl-2-(adamantan-2-yl)-1,2-diazetidin-3-one] |
| 0.061 µM | 0.026 µM | – | Cc1c(F)cccc1CN1N(C2C3CC4CC(C3)CC2C4)C(=O)C1(C)C (centres unmarked) [Example 58, 1-(3-fluoro-2-methylbenzyl)-4,4-dimethyl-2-(adamantan-2-yl)-1,2-diazetidin-3-one] |
| 0.064 µM | 0.25 µM | – | CC1(C)C(=O)N(C2C3CC4CC(C3)CC2C4)N1Cc1cccc(Cl)c1F (centres unmarked) [Example 59, 1-(3-chloro-2-fluorobenzyl)-4,4-dimethyl-2-(adamantan-2-yl)-1,2-diazetidin-3-one] |
| 0.3 µM | 0.23 µM | – | CC1(C)C(=O)N(C2C3CC4CC(C3)CC2C4)N1Cc1cccc2c1OCO2 (centres unmarked) [Example 61, 1-(1,3-benzodioxol-4-ylmethyl)-4,4-dimethyl-2-(adamantan-2-yl)-1,2-diazetidin-3-one] |
| 0.41 µM | 0.015 µM | – | CC1(C)C(=O)N(C2C3CC4CC(C3)CC2C4)N1Cc1cccc2ccccc12 (centres unmarked) [Example 63, 4,4-dimethyl-1-(naphthalen-1-ylmethyl)-2-(adamantan-2-yl)-1,2-diazetidin-3-one] |
| 0.041 µM | 0.6 µM | – | CC1(C)C(=O)N(C2C3CC4CC(C3)CC2C4)N1Cc1ccc2ccccc2c1 (centres unmarked) [Example 64, 4,4-dimethyl-1-(naphthalen-2-ylmethyl)-2-(adamantan-2-yl)-1,2-diazetidin-3-one] |
| 0.47 µM | 0.5 µM | – | CC1(C)C(=O)N([C@H]2C3CC4CC2C[C@](O)(C4)C3)N1Cc1ccccc1Cl [Example 65, trans-1-(2-chlorobenzyl)-2-(5-hydroxyadamantan-2-yl)-4,4-dimethyl-1,2-diazetidin-3-one] |
| 0.57 µM | – | 0.09 µM | CC1(C)C(=O)N([C@H]2C3CC4CC2C[C@](O)(C4)C3)N1Cc1ccccc1C(F)(F)F [Example 66, trans-2-(5-hydroxyadamantan-2-yl)-4,4-dimethyl-1-[2-(trifluoromethyl)benzyl]-1,2-diazetidin-3-one] |
